What was measured:
[1] = target: T1, TRPC5 (Homo sapiens, UniProt Q9UL62); experiment: Syncropath % inhibition TRPC5; format: cell-based; settings: read-out: Syncropath % inhibition TRPC5 @3 μM; heading: Syncropath % inhibition TRPC5 @3
T1 construct: expressed in transfected cells; host or cells: HEK293
T1 sequence (Q9UL62 1-973): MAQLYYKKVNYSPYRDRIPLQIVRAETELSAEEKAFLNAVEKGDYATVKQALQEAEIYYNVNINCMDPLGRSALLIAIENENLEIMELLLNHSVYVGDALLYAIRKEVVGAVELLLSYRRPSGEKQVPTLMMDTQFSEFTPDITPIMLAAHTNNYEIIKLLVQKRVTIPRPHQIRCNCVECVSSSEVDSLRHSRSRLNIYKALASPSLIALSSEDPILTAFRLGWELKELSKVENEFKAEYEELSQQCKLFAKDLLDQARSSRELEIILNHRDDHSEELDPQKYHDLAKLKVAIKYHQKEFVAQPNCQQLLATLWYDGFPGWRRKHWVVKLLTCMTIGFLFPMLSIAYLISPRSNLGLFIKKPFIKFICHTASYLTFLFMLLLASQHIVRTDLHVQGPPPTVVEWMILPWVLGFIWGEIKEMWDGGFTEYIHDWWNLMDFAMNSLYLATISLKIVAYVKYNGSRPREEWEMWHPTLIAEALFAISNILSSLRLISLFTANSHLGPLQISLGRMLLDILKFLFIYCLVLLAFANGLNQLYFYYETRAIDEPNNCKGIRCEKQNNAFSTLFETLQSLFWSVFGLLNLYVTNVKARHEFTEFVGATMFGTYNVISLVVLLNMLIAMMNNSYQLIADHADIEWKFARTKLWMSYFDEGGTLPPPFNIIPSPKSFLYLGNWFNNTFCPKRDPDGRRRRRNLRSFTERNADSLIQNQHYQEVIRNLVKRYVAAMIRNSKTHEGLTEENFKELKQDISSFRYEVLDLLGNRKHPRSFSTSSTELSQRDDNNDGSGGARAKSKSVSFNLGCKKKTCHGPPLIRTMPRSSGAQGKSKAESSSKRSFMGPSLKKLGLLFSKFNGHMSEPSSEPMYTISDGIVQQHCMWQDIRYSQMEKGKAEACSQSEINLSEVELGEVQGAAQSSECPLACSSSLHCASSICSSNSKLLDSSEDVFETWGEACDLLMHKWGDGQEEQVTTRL

[2] = tested on: podocytes; experiment: ROS assay in wild-type podocytes treated with AngII; format: cell-based, mouse; settings: WT podocytes, AngII 10 μM, 30 μM compound, 3 hours
Experimental: (§1) Podocyte culture and viral transduction: Immortalized mouse podocytes were cultured as previously described (10, 11). Podocyte viral transduction was performed using lentivirus as previously described (10, 11). Briefly, lentivirus production was carried out in HEK293T cells at 60% confluence, and viral particles were collected two days after transfection and purified by centrifugation at 1,000 rcf for 5 min. Purified lentivirus was frozen at −80° C. until further use. Podocytes were transduced with lentivirus after 7 days of differentiation, and assays were performed 5 days after viral transduction.
ROS and cell viability assays: For ROS experiment in FIG. 4A, mature podocytes were cultured as previously described. Cells were incubated with CellRox Deep Red reagent (ThermoFisher) for 30 min at 37° C. Then cells were treated with DMSO, 10 μM angiotensin II, 10 μM angiotensin II with 30 μM AC1903, or 10 μM angiotensin II with 30 μM N-acetyl-L-cysteine (NAC) for 3 hours at 37° C. Cells were washed with PBS twice and fluorescence images were observed using Olympus IX71 microscopy. Fluorescence intensities were then analyzed using ImageJ software.

[3] = tested on: caAT1R podocytes; experiment: Cell viability assay in podocytes expressing caAT1R; format: cell-based, mouse; settings: 30 μM ML204, 30 μM AC1903 or 50 μM NSC23677 for 36 hours
Experimental: as §1
(§2) For experiments in FIG. 4B/C, pCDNA3.1 AT1AR-Δ324 (rat AT1R NM_030985.4) containing HA tag (Plasmid #45635, Addgene) underwent site directed mutagenesis (Agilent) to generate the N111S substitution. For FIG. 4B, differentiated podocytes were transduced with the AT1A-N111S/Δ324 construct in six-well plates. Six days after viral transduction, cells were treated with either vehicle, 30 μM ML204, 30 μM AC1903 or 50 μM NSC23677 for 36 hours. Intracellular production of ROS was measured using a cell-permeable fluorescent dye, 5-(and-6)-chloromethyl-2′,7′-dichlorodihydrofluorescein diacetate, acetyl ester (CM-H2DCFDA, Molecular Probes). Cells were incubated with 5 μM CM-H2DCFDA at 37° C. for 45 min in Hanks' balanced salt solution (HBSS). Cells were then collected, resuspended in HBSS, stained with propidium iodide and the fluorescence intensity was assessed by flow cytometry using MACSQuant Analyzer (Miltenyi Biotec, Bergisch Gladbach, Germany). Living cells, which were PI negative, were selected by FACS gating and the fluorescence of CM-H2DCFDA was recorded on the FL-1 channel (525 nm). For FIG. 4C, differentiated podocytes were transduced with the AT1A-N111S/Δ324 construct in 96 well plates. Six days after transduction, the cells were treated with either vehicle, 30 μM ML204, 30 μM AC1903 or 50 μM NSC23677 for 36 hours. […]

[4] = tested on: caAT1R podocytes; experiment: ROS assay in caAT1R expressing podocytes; format: cell-based, mouse; settings: 30 μM ML204, 30 μM AC1903 or 50 μM NSC23677 for 36 hours
Experimental: as §1, §2

Fc1ccc(Cc2c(NCc3ccco3)nc3ccccn23)cc1 [Compound 5, 3-(4-fluorobenzyl)-N-(furan-2-ylmethyl)imidazo[1,2-a]pyridin-2-amine]
inhibition at 3 µM [1]: 88.7%

c1ccc(Cc2c(N3CCCC3)nc3ccccn23)cc1 [Compound 7, 3-benzyl-2-(pyrrolidin-1-yl)imidazo[1,2-a]pyridine]
inhibition at 3 µM [1]: 33.4%

CC(=O)N[C@@H](CS)C(=O)O [NAC, N-acetyl-L-cysteine, reference compound]
AngII-induced ROS [2]: rescued podocytes from AngII-induced ROS

CCN(CC)CCSc1c2ccc(Cl)cc2nc2ccc(OC)cc12.Cl [NSC23677]
podocyte cell death on caAT1R expression [3]: protected from cell death
caAT1R-induced ROS generation [4]: blocked caAT1R-induced ROS generation
